Assay results: US6936625B2 (Hanmi Pharm. Co., Ltd., priority 2001, dated 2005)
In brackets after ≈: the same amount, converted by molar mass. Read-outs that look alike come from different tables or passages of the source.

Columns and labels:
[1] = Solubility test (saturation in distilled water, liquid chromatography); assay type: physicochemical; settings: for Solubility: distilled water to saturation, based on the amount of amlodipine
Description: The measurement was performed according to the procedure described in the Korean Pharmacopoeia (Korean Ministry of Health and Welfare, General principle of medical supplies, Vol. 1, Clause 29, the 7th revision) which comprises the steps of dissolving each compound in distilled water to saturation, analyzing the saturated solution with liquid chromatography, and measuring the dissolved amount of each compound based on the amount of amlodipine.

[2] = Stability test (storage at 55° C., about 50% relative humidity); assay type: physicochemical; set-up: remaining amount of active amlodipine: unit not given here; settings: relative humidity about 50%; for time-dependent stability (in words): up to 4 weeks
Description: Specifically, each compound was stored at 55° C., a relative humidity of about 50%, and after 1, 2, 3 and 4 weeks, the remaining amount of active amlodipine was determined with a liquid chromatography.

[3] = Non-hygroscopicity test (moisture content); assay type: physicochemical; settings: for moisture content, Condition 2: 30° C. under 95% relative humidity for 3 days; for moisture content, Condition 1: 37° C. under 75% relative humidity for 24 hours; for Initial moisture: before exposure
Description: When a solid form of a drug is to be formulated, it is important that the drug is not hygroscopic. Accordingly, the hygroscopicity of the inventive amlodipine camsylate was measured and compared with that of amlodipine besylate.
Each compound was exposed to two conditions: 37° C. under 75% relative humidity for 24 hours (condition 1) and 30° C. under 95% relative humidity for 3 days (condition 2), and then, the moisture content of each compound was measured according to the method described in Korean Patent Publication No. 1995-7228.

Quail = settings: oral; cited from earlier work
Rat = settings: oral; cited from earlier work
Cat = settings: cutaneous; cited from earlier work
Wild-birds = settings: oral; cited from earlier work
Mouse = settings: in vivo, sc; cited from earlier work
[4] = in a solution; cited from earlier work

| Compound | remaining amount of active amlodipine ([2]; 1 week) | remaining amount of active amlodipine ([2]; 2 weeks) | remaining amount of active amlodipine ([2]; 3 weeks) | remaining amount of active amlodipine ([2]; 4 weeks) | remaining amount of active amlodipine ([2]; Initial) | moisture content, Condition 2 [3] | moisture content, Condition 1 [3] | Initial moisture [3] | also measured |
| --- | --- | --- | --- | --- | --- | --- | --- | --- | --- |
| CCOC(=O)C1=C(COCCN)NC(C)=C(C(=O)OC)C1c1ccccc1Cl (stereo not drawn) [Amlodipine besylate, amlodipine benzenesulfonate, reference compound] | 0.992 | 0.996 | 0.993 | 0.993 | 1 | 0.15% | 0.05% | 0.05% | Solubility ([1]; distilled water, water, thermodynamic from solid, read-out: Solubility): 1400 µg/mL; time-dependent stability (in words) [2]: slight but significant degradation after 1 week |
| CC1(C)C2CCC1(CS(=O)(=O)O)C(=O)C2 (racemic) [(±)-10-Camphor sulfonic aicd, (±)-10-camphor sulfonic acid] | – | – | – | – | – | – | – | – | LD50 (Quail): LD50 > 316 mg/kg |
| O=S(=O)(O)c1ccccc1 [Benzene sulfonic acid] | – | – | – | – | – | – | – | – | LD50 (Rat): LD50 890 μl/kg; LDLO (Cat): LDLO 10 g/kg; LD50 (Wild-birds): LD50 75 mg/kg |
| CCOC(=O)C1=C(COCCN)NC(C)=C(C(=O)OC)C1c1ccccc1Cl [Amlodipine camsylate of Example 2 (R), Amlodipine Camsylate] | 1 | 1 | 1.002 | 1 | 1 | 0.15% | 0.05% | 0.05% | Solubility [1]: 1250 µg/mL (≈ 3.06 mM) |
| CC1(C)C2CC[C@@]1(CS(=O)(=O)O)C(=O)C2 [(1S)-(+)-10-Camphor sulfonic acid, (1S)-(+)-10-camphor sulfonic acid] | – | – | – | – | – | – | – | – | LD50 (Mouse): LD50 2502 mg/kg |
| amlodipine maleate | – | – | – | – | – | – | – | – | stability in solution (in words) [4]: degrades in a solution within several weeks |
| CCOC(=O)C1=C(COCCN)NC(C)=C(C(=O)OC)C1c1ccccc1Cl [Amlodipine camsylate of Example 1 (S), Amlodipine Camsylate] | 1 | 0.998 | 1 | 1 | 1 | 0.15% | 0.05% | 0.05% | Solubility [1]: 1225 µg/mL (≈ 3 mM); Saturation pH ([1]; saturated solution in distilled water): 6.0 |
| CCOC(=O)C1=C(COCCN)NC(C)=C(C(=O)OC)C1c1ccccc1Cl (stereo not drawn) [Amlodipine camsylate, amlodipine camsylate] | – | – | – | – | – | – | – | – | time-dependent stability (in words) [2]: stable during the 4 weeks period |
